Reference: patent US10306895B2, “Plant defense signaling peptides and applications thereof” (Academia Sinica, priority 2014, dated 2019)
Ends that are not written are not given here.

Legend:
[1] = tested on: Pst DC3000; experiment: Pathogen challenge of presprayed Arabidopsis plants; format: in vivo, Pseudomonas syringae pv. tomato; conditions: plants sprayed with 100 nM peptide for 2 hours prior to inoculation
Procedure: The infection symptoms were observed 4 days after inoculation. The bacterial numbers were calculated 4 days after inoculation and are represented as log colony-forming units (Log CFU) per g leaf tissue. Data represent the means and SD of three biological samples.
To test the anti-pathogen activity induced by peptides in Arabidopsis, the plants were sprayed with 100 nM AtCAPE1, AtCAPE9, 100 nM flg22 or water, respectively, for 2 hours prior to pathogen challenge.
The bacterial pathogen Pseudomonas syringae pv. tomato DC3000 (Pst DC3000) or Pst DC3000 hrcC^− were grown on King's B (KB) agar medium containing 100 mg/L rifampicin for 2 days at 28° C. Before the challenge, the bacteria were cultured in KB liquid medium at 28° C. with 230 rpm shaking overnight. The bacteria were pelleted by centrifugation and resuspended in 10 mM MgSO4 at A600=0.25 (about 10^8 cfu/ml).

[2] = tested on: WRKY53 and PR-1b gene expression; experiment: qRT-PCR of WRKY53 and PR-1b in detached tomato leaves; format: in vivo, Solanum lycopersicum (tomato); conditions: 250 nM peptide, 2 hours
Procedure: (a) The level of SA induced by CAPE1 and flg22. The excised plants were pretreated with 10 mM phosphate buffer (buffer) or 365 nM CAPE1 or 365 nM flg22 in buffer through the cut stem for 8 hours (n=3). The quantity of SA was quantified by LC-SRM-MS and calculated based on the abundance of spiked SA isotopic standard (d6-SA). (b) The relative expression of WRKY53 and PR-1b were quantified by comparing the expression levels in untreated detached leaves with the detached leaves treated with water, 250 nM CAPE1 or 250 nM flg22 for 2 hours (n=4). The internal control Ubi3 was used for normalization. (c) The Pst DC3000 infection phenotypes for plants presprayed with water, 100 nM CAPE1 or 100 nM flg22 peptide for 2 hours (n=3) prior to the pathogen inoculation. The infection symptoms were observed 4 days after inoculation. […] A statistically significant difference compared with the correspondingly treated water (or buffer) samples is indicated with ** (P<0.01) or *** (P<0.001) based on Student's t-test.
Quantitative real-time PCR (qRT-PCR) was used to validate the expression of some specific genes. Three biological replicates were used for qRT-PCR analyses. The qRT-PCR was performed using SYBR Green reagent and ABI 7500 Real Time PCR systems (Foster City, Calif.). […]

[3] = tested on: SA accumulation; experiment: Salicylic acid quantitation by LC-MS/MS in excised tomato plants; format: in vivo, Solanum lycopersicum (tomato); conditions: 365 nM peptide supplied to excised plants through cut stem, 8 hours
Procedure: (a) The level of SA induced by CAPE1 and flg22. The excised plants were pretreated with 10 mM phosphate buffer (buffer) or 365 nM CAPE1 or 365 nM flg22 in buffer through the cut stem for 8 hours (n=3). The quantity of SA was quantified by LC-SRM-MS and calculated based on the abundance of spiked SA isotopic standard (d6-SA). (b) The relative expression of WRKY53 and PR-1b were quantified by comparing the expression levels in untreated detached leaves with the detached leaves treated with water, 250 nM CAPE1 or 250 nM flg22 for 2 hours (n=4). The internal control Ubi3 was used for normalization. […]
After peptide treatment, the metabolites were extracted from leaf tissues for phytohormone quantitation. […] The dried samples were dissolved in 300 μl methanol, mixed well and centrifuged at 10,000×g at 4° C. for 5 minutes and then the supernatant was transferred to the sample vial for targeted quantitation analysis using LC-MS/MS.
For phytohormone quantitation, a linear ion trap-orbitrap mass spectrometer (Orbitrap Elite, Thermo Fisher Scientific, Bremen, Germany) coupled online with a UHPLC system (ACQUITY UPLC, Waters, Millford, Mass.) was used. […] The fragmentation reactions of m/z 137.02 to 93.03 for SA, 209.12 to 59.01 for JA, 322.20 to 130.09 for JA-Ile, 141.05 to 97.06 for d6-SA and 211.13 to 59.01 for H2JA were selected for quantitation. […]

[4] = tested on: Pseudomonas syringae pv. tomato DC3000 (Pst DC3000); format: in vivo
Procedure: (a) Changes of the larval sizes after feeding with water or 250 nM CAPE1 treated tomato leaves. The larval weights of thirty larvae were recorded each day. (b) The Pst DC3000 infection phenotypes of the plants presprayed with water or 100 nM CAPE1 peptide for 2 hours (n=3) prior to pathogen inoculation. […] All statistically significant differences between the CAPE1- and water-treated samples are indicated with * (P<0.05) or *** (P<0.001) based on Student's t-test.
(a) The level of SA induced by CAPE1 and flg22. The excised plants were pretreated with 10 mM phosphate buffer (buffer) or 365 nM CAPE1 or 365 nM flg22 in buffer through the cut stem for 8 hours (n=3). The quantity of SA was quantified by LC-SRM-MS and calculated based on the abundance of spiked SA isotopic standard (d6-SA). (b) The relative expression of WRKY53 and PR-1b were quantified by comparing the expression levels in untreated detached leaves with the detached leaves treated with water, 250 nM CAPE1 or 250 nM flg22 for 2 hours (n=4). The internal control Ubi3 was used for normalization. (c) The Pst DC3000 infection phenotypes for plants presprayed with water, 100 nM CAPE1 or 100 nM flg22 peptide for 2 hours (n=3) prior to the pathogen inoculation. The infection symptoms were observed 4 days after inoculation. […]

[5] = tested on: WRKY53, PR-1b, Adi3 and ERF5 gene expression; conditions: 30 minute or 6 hours treatment of flg22 on tomato; cited from earlier work
[6] = tested on: JA and JA-Ile accumulation; experiment: Jasmonate hormone quantitation by LC-MS/MS in excised tomato plants; format: in vivo, Solanum lycopersicum (tomato); conditions: 365 nM peptide in buffer through the cut stem of excised plants, 2 and 4 hours
Procedure: The plants treated with 10 mM phosphate buffer (buffer), 365 nM systemin (Sys) or 365 nM CAPE1 in buffer through the cut stem for 2 and 4 hours (n=3). The quantity of JA and JA-Ile were quantified by LC-SRM-MS and calculated by the abundance of spiked standard H2JA. Data represent the means and SD of three independent biological replicates.
To compare the jasmonates induced by the peptides, the excised tomato plants were treated with 10 mM phosphate buffer, 365 nM systemin or 365 nM CAPE1 in buffer through the cut stem for 2 and 4 hours (Schaller et al., 1995; Howe et al., 1996).
After peptide treatment, the metabolites were extracted from leaf tissues for phytohormone quantitation. The extraction procedure was modified from a previously published protocol (Pan et al., 2010). The leaf tissues (about 0.6 g fresh weight) were ground into powder under liquid nitrogen and transferred to a 50 ml screw-cap tube. The frozen leaf powder was dissolved in 6 ml extraction solvent and d6-SA (3 ng to 0.6 g leaf tissue) and H2JA (15 ng to 0.6 g leaf tissue) were added as internal standards. The samples were extracted by shaking at a speed of 100 rpm at 4° C. for 30 minutes and then 12 ml dichloromethane was added to each sample and shaken at 100 rpm at 4° C. for 30 minutes. The samples were centrifuged at 13,000×g at 4° C. for 5 minutes, and two phases were formed. […]

[7] = tested on: PR-1b and WRKY53 gene expression; experiment: qRT-PCR of defense genes in tomato leaves pretreated with cleavage motif peptide and challenged with Pst DC3000 hrcC-; format: in vivo; conditions: 1 μM CNYDPV pretreatment for 2 h, then Pst DC3000 hrcC- challenge for 2 h
Procedure: Relative expression levels of PR-1b and WRKY53 were analyzed by qRT-PCR 2 h after challenge of 10^7 cfu/mL Pst DC3000 hrcC^− or buffer in tomato leaves, which was pretreated with water, 100 nM CAPE1 or 1 μM CNYDPV for 2 h, respectively.
Quantitative real-time PCR (qRT-PCR) was used to validate the expression of some specific genes. Three biological replicates were used for qRT-PCR analyses. The qRT-PCR was performed using SYBR Green reagent and ABI 7500 Real Time PCR systems (Foster City, Calif.). The PCR cycling steps were 50° C. for 2 min and 94° C. for 10 min for initial steps and followed by 95° C. for 15 s and 60° C. for 1 min for 40 cycles. The gene expressions across different samples were normalized with internal control EF-1α or Ubi3. The melting curve was used to verify the specificity of the PCR product.

[8] = tested on: Pst DC3000; conditions: seedlings treated with 50 mM NaCl for 24 hours, with or without 250 nM AtCAPE1 for 6 hours
Procedure: 5 days Arabidopsis seedlings treated with 50 mM NaCl for 24 hours and following the treatment of with or without 250 nM AtCAPE1 for 6 hours. The infection symptoms were observed 4 days after Pst DC3000 inoculation. The bacterial numbers were calculated 7 days after inoculation and represented as log colony-forming units (Log CFU) per g leaf tissue. Data represent the means and SD of three biological samples.
Pst DC3000 or hrcC^− were grown in water- or peptide-treated plants for several days to observe the symptoms and then the bacteria were collected from the leaves and evaluated by bacterial titers according to a method outlined previously (Zimmerli et al., 2000).

With “PRGNYVNEKPY (listed as Arabidopsis thaliana) [AtCAPE9]” the “immunity against Pst DC3000 infection in Arabidopsis” value [1] was “increase immunity against Pst DC3000 infection”.

With QRLSTGSRINSAKDDAAGLQIA [flg22] the WRKY53 expression [2] was “highly induced”, the “induction of SA” value [3] was “significantly induced SA” and the “plant resistance to Pst DC3000 infection in tomato” value ([4]; plants sprayed with 100 nM peptide for 2 hours prior to inoculation) was “resulted in plant resistance to Pst DC3000 infection”. The “PR-1b, Adi3 and ERF5 induction (public RNA-seq data)” value [5] was “could not be significantly induced” and the “WRKY53 induction (public RNA-seq data)” value [5] was “could be induced”.

For PVGNWIGQRPY [CAPE1, PVGNWIGQRPY], the “induction of the hypersensitive response (HR)” value ([4]; in vivo) was “without induction of the HR”.

With AVQSKPPSKRDPPKMQTD [systemin] the “induction of JA and JA-Ile” value [6] was “significantly induced by treatment for 2 hours”.

With CNYDPV the “defense gene expression (PR-1b and WRKY53) in tomato” value [7] was “decreased”.

For `[Cl-].[Na+]` [salt, NaCl], the “anti-pathogen activity in Arabidopsis after salt treatment” value [8] was “enhance the anti-pathogen activity”.

With “PAGNYIGARPY (listed as Arabidopsis thaliana) [AtCAPE1]” the “immunity against Pst DC3000 infection in Arabidopsis” value [1] was “increase immunity against Pst DC3000 infection”.
